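Following 48 hours of exposure in 96-well plates, responses at five concentrations were used to interpolate endpoints linearly. GI50 marks 50% less growth.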 Calls of active or inactive are those of the source. Rule as the data show it: active = GI50 up to about 1.1 µM and inactive = higher.
Experiments:
Test in all cases: DTP human tumour cell line panel, 48 h
[1] = test system: A549
[2] = test system: NCI-H522
[3] = test system: COLO 205
[4] = test system: U-251
[5] = test system: UACC-257
[6] = test system: NCI-H460
[7] = test system: M14
[8] = test system: OVCAR-8
[9] = test system: KM-20L2
[10] = test system: SF-268
[11] = test system: DMS-114
[12] = test system: SK-OV-3
[13] = test system: SNB-19
[14] = test system: LOX IMVI
[15] = test system: SW-620
[16] = test system: LXFL 529
[17] = test system: HT-29
[18] = test system: RXF 393
[19] = test system: SR
[20] = test system: UACC-62
[21] = test system: SF-295
[22] = test system: DMS-273
[23] = test system: HL-60
[24] = test system: CCRF-CEM
[25] = test system: KM12
[26] = test system: K562
[27] = test system: HCT-15
[28] = test system: M19-MEL
[29] = test system: SK-MEL-2
[30] = test system: NCI-H226
[31] = test system: OVCAR-4
[32] = test system: 786-0
[33] = test system: SNB-78
[34] = test system: Malme-3M
[35] = test system: SK-MEL-5
[36] = test system: UO-31
[37] = test system: TK-10
[38] = test system: MOLT-4
[39] = test system: HOP-62
[40] = test system: ACHN
[41] = test system: RPMI-8226
[42] = test system: SK-MEL-28
[43] = test system: SN12C
[44] = test system: NCI-H23
[45] = test system: SNB-75
[46] = test system: EKVX
[47] = test system: XF498
[48] = test system: OVCAR-3
[49] = test system: IGROV-1
[50] = test system: HCC 2998
[51] = test system: SF-539
[52] = test system: CAKI-1
[53] = test system: HCT-116
[54] = test system: A498
[55] = test system: HOP-18
[56] = test system: OVCAR-5
[57] = test system: DLD-1

Compound: CC(=O)O[C@]12CCCCCC1C1(O)C(O)CCCCC12 (some centres undefined)
- GI50 [1]: > 100 µM (inactive)
- GI50 [2]: > 100 µM (inactive)
- GI50 [3]: > 100 µM (inactive)
- GI50 [4]: > 100 µM (inactive)
- GI50 [5]: > 100 µM (inactive)
- GI50 [6]: > 100 µM (inactive)
- GI50 [7]: > 100 µM (inactive)
- GI50 [8]: > 100 µM (inactive)
- GI50 [9]: > 100 µM (inactive)
- GI50 [10]: > 100 µM (inactive)
- GI50 [11]: > 100 µM (inactive)
- GI50 [12]: > 100 µM (inactive)
- GI50 [13]: > 100 µM (inactive)
- GI50 [14]: > 100 µM (inactive)
- GI50 [15]: > 100 µM (inactive)
- GI50 [16]: > 100 µM (inactive)
- GI50 [17]: > 100 µM (inactive)
- GI50 [18]: > 100 µM (inactive)
- GI50 [19]: > 100 µM (inactive)
- GI50 [20]: > 100 µM (inactive)
- GI50 [21]: > 100 µM (inactive)
- GI50 [22]: > 100 µM (inactive)
- GI50 [23]: > 100 µM (inactive)
- GI50 [24]: > 100 µM (inactive)
- GI50 [25]: > 100 µM (inactive)
- GI50 [26]: > 100 µM (inactive)
- GI50 [27]: > 100 µM
- GI50 [28]: > 100 µM (inactive)
- GI50 [29]: > 100 µM (inactive)
- GI50 [30]: > 100 µM (inactive)
- GI50 [31]: > 100 µM (inactive)
- GI50 [32]: > 100 µM (inactive)
- GI50 [33]: > 100 µM (inactive)
- GI50 [34]: > 100 µM (inactive)
- GI50 [35]: > 100 µM (inactive)
- GI50 [36]: > 100 µM (inactive)
- GI50 [37]: > 100 µM (inactive)
- GI50 [38]: > 100 µM (inactive)
- GI50 [39]: > 100 µM (inactive)
- GI50 [40]: > 100 µM (inactive)
- GI50 [41]: > 100 µM (inactive)
- GI50 [42]: > 100 µM (inactive)
- GI50 [43]: > 100 µM (inactive)
- GI50 [44]: > 100 µM (inactive)
- GI50 [45]: > 100 µM (inactive)
- GI50 [46]: > 100 µM (inactive)
- GI50 [47]: > 100 µM (inactive)

Compound: OC12c3ccccc3C1CCCCCCCCCC21OCCO1 (centres undefined)
- GI50 [1]: > 100 µM (inactive)
- GI50 [2]: > 100 µM (inactive)
- GI50 [3]: > 100 µM (inactive)
- GI50 [4]: > 100 µM (inactive)
- GI50 [5]: > 100 µM (inactive)
- GI50 [6]: > 100 µM (inactive)
- GI50 [7]: > 100 µM (inactive)
- GI50 [8]: > 100 µM (inactive)
- GI50 [9]: > 100 µM (inactive)
- GI50 [10]: > 100 µM (inactive)
- GI50 [11]: > 100 µM (inactive)
- GI50 [12]: > 100 µM (inactive)
- GI50 [13]: > 100 µM (inactive)
- GI50 [14]: > 100 µM (inactive)
- GI50 [15]: > 100 µM (inactive)
- GI50 [16]: > 100 µM (inactive)
- GI50 [48]: > 100 µM (inactive)
- GI50 [17]: > 100 µM (inactive)
- GI50 [18]: > 100 µM (inactive)
- GI50 [20]: > 100 µM (inactive)
- GI50 [21]: > 100 µM (inactive)
- GI50 [22]: > 100 µM (inactive)
- GI50 [24]: > 100 µM (inactive)
- GI50 [25]: > 100 µM (inactive)
- GI50 [49]: > 100 µM (inactive)
- GI50 [50]: > 100 µM (inactive)
- GI50 [26]: > 100 µM (inactive)
- GI50 [27]: > 100 µM
- GI50 [51]: > 100 µM (inactive)
- GI50 [28]: > 100 µM (inactive)
- GI50 [29]: > 100 µM (inactive)
- GI50 [30]: > 100 µM (inactive)
- GI50 [31]: > 100 µM (inactive)
- GI50 [52]: > 100 µM (inactive)
- GI50 [32]: > 100 µM (inactive)
- GI50 [33]: > 100 µM (inactive)
- GI50 [34]: > 100 µM (inactive)
- GI50 [35]: > 100 µM (inactive)
- GI50 [36]: > 100 µM (inactive)
- GI50 [53]: > 100 µM (inactive)
- GI50 [54]: > 100 µM (inactive)
- GI50 [37]: > 100 µM (inactive)
- GI50 [38]: > 100 µM (inactive)
- GI50 [39]: > 100 µM (inactive)
- GI50 [40]: > 100 µM (inactive)
- GI50 [41]: > 100 µM (inactive)
- GI50 [42]: > 100 µM (inactive)
- GI50 [55]: > 100 µM (inactive)
- GI50 [43]: > 100 µM (inactive)
- GI50 [56]: > 100 µM (inactive)
- GI50 [44]: > 100 µM (inactive)
- GI50 [45]: > 100 µM (inactive)

Compound: Cc1cc(Cl)ccc1NC1=NC(=O)C(CC(=O)Nc2ccc([N+](=O)[O-])cc2[N+](=O)[O-])S1 (centres undefined)
- GI50 [1]: 27.5 µM (inactive)
- GI50 [3]: 36.6 µM (inactive)
- GI50 [4]: 23.3 µM (inactive)
- GI50 [5]: 28.4 µM (inactive)
- GI50 [6]: 29.1 µM (inactive)
- GI50 [7]: 24.2 µM (inactive)
- GI50 [8]: 34.1 µM (inactive)
- GI50 [9]: 31.1 µM (inactive)
- GI50 [10]: 38 µM (inactive)
- GI50 [11]: 19.9 µM (inactive)
- GI50 [12]: 25.2 µM (inactive)
- GI50 [13]: 26.9 µM (inactive)
- GI50 [14]: 34.9 µM (inactive)
- GI50 [15]: 32.9 µM (inactive)
- GI50 [16]: 18.8 µM (inactive)
- GI50 [48]: 23.6 µM (inactive)
- GI50 [17]: 37 µM (inactive)
- GI50 [20]: 23.8 µM (inactive)
- GI50 [21]: 22.9 µM (inactive)
- GI50 [22]: 30.5 µM (inactive)
- GI50 [24]: 23.4 µM (inactive)
- GI50 [25]: 35.1 µM (inactive)
- GI50 [49]: 32.3 µM (inactive)
- GI50 [50]: 39.6 µM (inactive)
- GI50 [26]: 27.6 µM (inactive)
- GI50 [27]: 29.5 µM
- GI50 [51]: 24.3 µM (inactive)
- GI50 [28]: 25.9 µM (inactive)
- GI50 [29]: 20.5 µM (inactive)
- GI50 [31]: 19.2 µM (inactive)
- GI50 [52]: 26.3 µM (inactive)
- GI50 [32]: 34.8 µM (inactive)
- GI50 [33]: 28.6 µM (inactive)
- GI50 [34]: 26.1 µM (inactive)
- GI50 [35]: 15.6 µM (inactive)
- GI50 [36]: 17.1 µM (inactive)
- GI50 [54]: 23.4 µM (inactive)
- GI50 [37]: 48.1 µM (inactive)
- GI50 [38]: 19.4 µM (inactive)
- GI50 [39]: 31.6 µM (inactive)
- GI50 [40]: 25.1 µM (inactive)
- GI50 [41]: 17.9 µM (inactive)
- GI50 [42]: 36.8 µM (inactive)
- GI50 [43]: 26.9 µM (inactive)
- GI50 [56]: 24.2 µM (inactive)
- GI50 [44]: 20.9 µM (inactive)
- GI50 [45]: 14.5 µM (inactive)
- GI50 [46]: 38.6 µM (inactive)
- GI50 [57]: 34.1 µM (inactive)
- GI50 [47]: 20.6 µM (inactive)

— ChEMBL document CHEMBL1201862, “PubChem BioAssay data set” (2004)
